One assay addresses cdk1/cyclin B (CDC2) (Homo sapiens, UniProt P06493). In words: CDK inhibition assay, cdk1/cyclin B (CDC2) kinase, histone phosphorylation. The assay is classed as biochemical. As to conditions: cell free system (Table 8). Put shortly: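 Radiometric endpoint kinase assay under linear conditions: histone (1 mg/ml) phosphorylated with 15 μM ATP and [γ-32P]ATP in 50 mM HEPES pH 7.4, 10 mM MgCl2, 1 mM DTT. IC50 obtained graphically from dose-response curves of % maximal activity, read by imaging analyzer.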

Assay [1] relates to CD34+CD38+ hematopoietic progenitors from adult bone marrow. The experiment in a line: Myeloid colony-forming unit (CFU) assay. The format is cell-based, human. As to conditions: for IC50: 14 days; for Colony output for CFU-E, CFU-G and CFU-M (output of the different types of myeloid colonies): scored differentially. An excerpt:
Adult Bone Marrow Cells (ABM): Bone marrow samples were obtained by sternal puncture from hematologically normal donors undergoing cardiac surgery, after obtaining informed consent according to the ethical regulations of the University of Antwerp. Cells were collected in IMDM supplemented with 10% FCS and 100 U/ml heparin and separated by density gradient as mentioned for PBMC. After washing, cells were resuspended in IMDM 10% FCS and were sorted on a FACStar (Becton Dickinson, Erembodegem, Belgium). Cell sorting: ABM cells (10^7 cells/ml) were incubated with 43A1 hybridoma supernatant at a 1/10 dilution for 20 minutes at 4° C. The supernatant of the 43A1 hybridoma (immunoglobulin IgG3) was kindly donated by Dr. […] (University of Tübingen, Germany) and was used as a source of anti-CD34 antibodies. After washing twice in IMDM, the cells were incubated with FITC-conjugated rabbit anti-mouse IgG (1/40 dilution) for 20 min at 4° C. […] After washing twice in IMDM, the cells were sorted on a FACStarPlus cell sorter equipped with an water-cooled argon ion laser (INNOVA Enterprise Ion Laser) with multiple wave length outputs including UV (488 nm). Cells with low-to-medium forward and low side scatter, highly positive green (CD34) fluorescence, and an orange (CD38) fluorescence signal lower than the mean fluorescence of cells labeled with an irrelevant isotype-matched control antibody were retained as CD34^+CD38^- cells; cells with an orange fluorescence above this threshold were retained as CD34^+CD38^+ cells. Myeloid Colony-forming unit (CFU) assays: Direct myeloid colony formation of CD34^+CD38^+ cells was assessed in a CFU assay. These assays were initiated with 500 cells per well and plated in duplicate in methylcellulose (0.9%) supplemented with 20% FCS, 1% bovine serum albumin (BSA), 10^-5 M mercaptoethanol and 10 vol. % 5637 conditioned medium of the 5637 bladder carcinoma cell line (containing G-CSF and GM-CSF), 2 U/ml erythropoietin and 30 U/ml interleukine-3 (IL-3). […] The following colony types were scored: myeloid colonies: macrophage (CFU-M), granulocyte (CFU-G), and granulocyte-macrophage (CFU-GM); erythroid colonies (BFU-E (burst-forming units, erythroid) and CFU-E); and mixed erythroid-myeloid colonies (CFU-Mix). CD34^+CD38^+ hematopoietic progenitors (HPC) from adult bone marrow were isolated and investigated for response to novel compounds. CD34^+CD38^+ cells were grown in a methylcellulose system in the presence of increasing concentrations of compounds.

In assay [2] the test system is T-lymphocyte leukemia Molt3 cell line. The experiment in a line: Cell proliferation of Molt3, flow cytometric cell count. Conditions: 96 hours. The assay is classed as cell-based, human. As for the experimental part:
(§1) Cell lines: Human leukemic cell lines were obtained from the American Type Culture Collection (ATCC, Rockville, Md., USA). They were cultured in Iscove's Modified Dulbecco's Medium (IMDM) supplemented with 10% heat inactivated fetal calf serum (FCS), 200 U/ml penicillin, 200 μg/ml streptomycin and 1 μg/ml amphotericin B. Cells were cultured in a 5% CO2-95% air fully humidified incubator. For effects on clonogenic output, 1000 cells/well were plated in duplicate in methylcellulose (0.9%), supplemented with 20% FCS for 14 days.
(§2) Cells were plated at 10000 per well in 200 μl IMDM medium and incubated with 0-50 μM of the novel compounds (Tab 8), by addition of drug directly to the culture medium and incubated at 37° C. for 96 hours (Tab 8). Absolute cell number was determined by addition of a known concentration Fluoresbrite microspheres (FITC) (Polysciences, Inc.). The absolute number of cells/well was calculated as: {(total number of beads added/well)/(number of beads measured)×(number of measured cells in the gate of interest)}. All analyses were performed with a FACScan (BD), using CELLQuest software (Becton Dickinson).
Response of the myeloid leukemia KG1 and T-lymphocyte leukemia Molt3 cell lines to the cytostatic effect of the novel compounds was determined using the above-mentioned standardized bead suspension that was used to determine the absolute cell number by flow cytometric (FCM) measurement. Cells were grown in the presence of increasing concentration of the novel compounds.

A further assay deals with KG1. In words: Clonogenic output of KG1 in methylcellulose. The assay is classed as cell-based, human. As to conditions: 25 μM. As for the experimental part:
as §1
Clonogenic output of KG1 was tested in methylcellulose with 25 μM of some of the novel compounds. Colony output vs. control cultures without novel compound, was 16% for 26, 19% for […] and 0% for 201.

In assay [3] the test system is PHA-stimulated lymphocytes (PBMC). The experiment in a line: Proliferation of PHA-stimulated lymphocytes (PBMC), flow cytometric cell count. Conditions: 96 hours, IL-2. The assay is classed as cell-based, human. As for the experimental part: Peripheral blood mononuclear cells (PBMC): Human peripheral blood mononuclear cells were isolated by density gradient (Ficoll-Hypaque) (LSM, ICN Biomedicals Inc.). PBMC were stimulated with 5 μg/ml phytohemaglutinin A (PHA) (Sigma) during 24-48 hours in IMDM supplemented with 10% FCS at 37° C. After washing off the PHA, PBMC were incubated with interleukin-2 (IL-2) (10 U/ml) (Genzyme).
as §2
PHA-stimulated lymphocytes (PBMC) were tested for their cytotoxicity as one of the normal counterparts of the cell lines. Cells were grown for 96 hours in the presence of IL-2 and different concentrations of the novel compounds and cell number was counted on the flow cytometer.
On the technique in general: A flow cytometer gives signals particle by particle.

Setting [4] is: total colony output, read-out: CFU IC50.

Like-named read-outs stand apart in the source and are kept apart here.

cdk1/cyclin B (CDC2), sequence (P06493 whole entry, species assumed): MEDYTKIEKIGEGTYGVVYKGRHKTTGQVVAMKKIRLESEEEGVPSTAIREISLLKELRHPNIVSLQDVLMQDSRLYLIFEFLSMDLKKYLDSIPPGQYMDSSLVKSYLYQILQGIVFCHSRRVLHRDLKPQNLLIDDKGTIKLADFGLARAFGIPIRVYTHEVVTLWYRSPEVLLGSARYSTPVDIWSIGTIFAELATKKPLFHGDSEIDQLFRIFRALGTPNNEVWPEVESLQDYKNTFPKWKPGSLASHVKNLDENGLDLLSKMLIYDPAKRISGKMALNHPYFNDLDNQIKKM
cdk1/cyclin B (CDC2), sequence (P14635 whole entry partner, species assumed): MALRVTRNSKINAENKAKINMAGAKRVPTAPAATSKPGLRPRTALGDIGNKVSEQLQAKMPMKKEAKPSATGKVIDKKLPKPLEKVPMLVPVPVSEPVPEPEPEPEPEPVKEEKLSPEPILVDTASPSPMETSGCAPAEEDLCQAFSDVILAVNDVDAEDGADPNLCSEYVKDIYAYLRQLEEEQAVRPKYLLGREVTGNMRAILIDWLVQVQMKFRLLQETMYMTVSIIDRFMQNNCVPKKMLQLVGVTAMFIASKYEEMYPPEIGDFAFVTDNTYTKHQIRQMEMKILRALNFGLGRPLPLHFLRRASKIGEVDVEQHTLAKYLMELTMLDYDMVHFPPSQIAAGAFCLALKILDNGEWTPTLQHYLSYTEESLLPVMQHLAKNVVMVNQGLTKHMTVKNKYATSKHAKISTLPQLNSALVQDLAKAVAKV

Regarding “5-(3-aminoethylamino)-7-(3,4-dihydroxybenzyl)amino-3-isopropylpyrazolo[4,3-d]pyrimidine [Compound 201]”, the IC50 was 0.5 µM on cdk1/cyclin B (CDC2), 4.5 µM in assay [1] (setting [4]), 12 ± 1.8 µM in assay [2] and 8 ± 2.2 µM in assay [3]. In assay [1], the “Colony output for CFU-E, CFU-G and CFU-M (output of the different types of myeloid colonies)” value was “significantly lower colony output”. For the same compound, the “Colony output vs. control cultures” value with KG1 is listed as 0%.
As to “5-(3-aminopropylamino)-7-benzylamino-3-isopropylpyrazolo[4,3-d]pyrimidine [Compound 17]”, the IC50 against cdk1/cyclin B (CDC2) stood at 11 µM; in assay [1] (setting [4]), 17 µM; in assay [2] it was 9.3 ± 0.3 µM; in assay [3], 4 ± 0.2 µM. The “Colony output for CFU-E, CFU-G and CFU-M (output of the different types of myeloid colonies)” value in assay [1] is recorded as “significantly lower colony output”.
Consider “5-(3-hydroxypropylamino)-7-[(R,S)-(1-phenyl-2-hydroxyethyl)amino-3-isopropylpyrazolo[4,3-d]pyrimidine [Compound 172]”, for which the half-inhibitory concentration (IC50) is greater than 50 µM at cdk1/cyclin B (CDC2), greater than 20 µM in assay [1] (setting [4]), 8 ± 1.5 µM in assay [2] and 4 ± 0.5 µM in assay [3]. Moreover, the “Colony output for CFU-E, CFU-G and CFU-M (output of the different types of myeloid colonies)” value in assay [1] is reported as “significantly lower colony output”.
As for “5-(methylthio)-7-[N-(3,4-dihydroxybenzyl-N-methyl]amino-3 isopropylpyrazolo[4,3-d]pyrimidine [Compound 26]”, the IC50 was greater than 100 µM against cdk1/cyclin B (CDC2), greater than 50 µM in assay [1] (setting [4]), 17 ± 2.9 µM in assay [2] and 16.5 ± 0.8 µM in assay [3]. Further, in assay [1], the “Colony output for CFU-E, CFU-G and CFU-M (output of the different types of myeloid colonies)” value is recorded as “no significant difference”. Further, the “Colony output vs. control cultures” value in the assay with KG1 was 16%.
With `CCCCCCNc1nc(NC(CO)c2ccccc2)c2[nH]nc(C(C)C)c2n1` (stereo not shown) [Compound 98, 5-(hexylamino)-7-(1-phenyl-2-hydroxyethylamino)-3-isopropylpyrazolo[4,3-d]pyrimidine], the IC50 against cdk1/cyclin B (CDC2) was 30 µM; in assay [1] (Homo sapiens, 336 h, methylcellulose, read-out: IC50 on CD34+CD38+ hematopoietic progenitors) it was greater than 50 µM; in assay [1] (Homo sapiens, 336 h, total colony output, read-out: CFU IC50), 5.4 ± 0.4 µM; in assay [2] (Homo sapiens, MOLT-3) it was 8 ± 0.4 µM; in assay [3] (Homo sapiens, Lymphocyte), 18 ± 1 µM. The “Colony output vs. control cultures” value in the assay with KG1 amounted to 19%.

Usually IC50 stands for the concentration that gives 50% inhibition.

Source of the values: patent US7745450B2, “Pyrazolo[4,3-d]pyrimidines, processes for their preparation and methods for therapy” (Institute of Experimental Botany, priority 2002, dated 2010).
